Laboratory results as given in US6673555B1, “Methods of using SCAP antagonists” (SmithKline Beecham Corporation, priority 1999, dated 2004).

Key:
human SREBP-2 = experiment: Western blot analysis of the proteolytic maturation of SREBP-2 in HepG2 cells; type: cell-based; details: 1 μM, 18 hours
Procedure: The involvement of the SREBP pathway was confirmed by Western Blot immunodetection of precursor and mature forms of human SREBP-2.
HepG2 cells were seeded in 150 cm^2 flasks at 8×10^6 cells and transfected with 10 μg of pTK-HSV-BP2 using Fugene 6 and incubated for 20 h before addition of 1 μM of example 1 or vehicle. After 18 h of incubation, membrane fraction and nuclear extracts were obtained using the method described by Hua, X. et al., J. Biol. Chem. 270: 29422-27 (1995).
Proteins (20 μg/load) were separated on 8% SDS-PAGE and blotted onto BA 83 nitrocellulose membrane (Schleisher & Schuell). The HSV tag present in the amino terminus of SREBP-2 was detected using 0.2 μg/ml of anti-HSV antibodies after saturation with 10% non-fat milk.
HepG2 cells were transfected (FIG. 4, lane b-e) or not transfected (FIG. 4, lane a) with pTK-HSV-BP2 vector encoding human SREBP-2 preceded by HSV tag. Cells were treated for 18 hours with Example 1 (1 μM) (lane c, d) or vehicle (lane a, b, e) and nuclear extract (lane d, e) and membrane (lane a-c) were isolated and analysed by western blotting using anti-HSV antibodies.

[1] = system: human LDL-receptor promoter; experiment: LDL-receptor promoter luciferase reporter assay in transfected HepG2 cells; type: cell-based
Excerpt: The human LDL-receptor promoter named p-588 corresponding to nucleotide −588 to +91 relative to the major transcription site was cloned by PCR from human genomic DNA (Clonetech) using SEQ ID NO: 3 […] and SEQ ID NO: 4 […] primers. and inserted into pGL3-basic vector (Promega) at Hind-III and Nco-I sites. The sequencing was identical to published promoter (Genbank L29401). Shorter promoters were obtained by PCR sub-cloning using Kpn-I and Nar-I sites. The primer SEQ ID NO: 5 […] corresponding to luciferase coding sequence was used as reverse primer for all constructs. The following primers were used to produce respectively p-149, p-118, p-70, p-53 and p-31 promoters: SEQ ID NO: 6 […], SEQ ID NO: 7 […], SEQ ID NO: 8 […], SEQ ID NO: 9 […] and SEQ ID NO: 10 […]. A vector containing the 38 bp of the minimal promoter of adenovirus Major Late Promoter (Ham. J. et al., EMBO, 10: 2931-2940 (1991)) was produced using Bgl-II and Hind-III site in pGL3-basic. Four repeats of the SRE sequence present on the human LDL-receptor promoter were introduced in p-MLP vector using Bgl-II site, SEQ ID NO: 11 […] and complementary oligo. HepG2 cells seeded the previous day at 3 10^5 cells per well of 24 well plate were transfected with 1 μg of LDL-promoter containing vector together with p-RL-TK control vector (Promega) using Fugene 6 (Boehringer). HepG2 cells were incubated for 28 hours in the presence of SCAP antagonist and/or 25OH-cholesterol. Firefly luciferase and Renila activity were measured using Dual Luciferase Assay Kit (Promega) and Lumistar (BMG). The ratio of Firefly luciferase to Renila were used to calculate mean and S.D. of tetraplicates.
A vector containing the human LDL-receptor promoter coupled to Firefly luciferase reporter was made. A mixture of the LDL-receptor vector and control pRL-TK vector was used to transfect HepG2 cells. Cells were incubated with 25OH-cholesterol (0.2 or 1 μM) alone or in the presence (black bars) or absence (gray bars) of Example 1 (1 μM) for 28 hours before measurement of luciferase and renila activity. The ratio of luciferase activity versus renila activity was calculated and the mean and SD of triplicates were expressed as percent of control.
Shortening the LDL-receptor promoter in the same reporter vector modifies the relative luciferase activity (FIG. 3A).

Compound: CCOc1cc(CC)ccc1C1CCN(CCCCNC(=O)c2ccc(NC(=O)c3ccc(Cl)cc3)cc2)CC1 [Example 1, 4-(4-Chloro-benzoylamino)-N-{4-[4-(2-ethoxy-4-ethyl-phenyl)-piperidin-1-yl]-butyl}-benzamide]
- amount of SREBP-2 precursor form in the membrane (human SREBP-2; HepG2 transfected with pTK-HSV-BP2, FIG. 4): reduces the amount of SREBP-2 precursor form present in the membrane
- amount of mature SREBP-2 in the nucleus (human SREBP-2; HepG2 transfected with pTK-HSV-BP2, nuclear extract, FIG. 4): strongly increases the amount of mature SREBP-2 in the nucleus
- LDL-receptor promoter activity on co-treatment with 25OH-cholesterol ([1]; 1 μM with 25OH-cholesterol 0.2 or 1 μM, 28 hours, HepG2, FIG. 2): can at least partially antagonise the effects of 25OH-cholesterol on SCAP
- LDL-receptor promoter activity (luciferase/renila ratio) ([1]; 1 μM, 28 hours, HepG2, FIG. 2): acts as a transcriptional activators
- response of minimal adenovirus Major Late promoter vector (p-MLP) ([1]; 1 μM, HepG2, FIG. 3C): fails to respond
- response of p-MLP vector with 4 copies of SRE ([1]; 1 μM, HepG2, FIG. 3C): sufficient to confer the responsiveness
- reporter expression from shortened LDL-receptor promoter constructs ([1]; 1 μM, HepG2, p-149 to p-31 constructs, FIG. 3B left): promote expression only for vectors possessing the SRE sequence
